Data taken from patent US10597388B2, “Pyridazinone herbicides” (FMC CORPORATION, priority 2014, dated 2020).

Tests used:
Assay in all cases: Test F mixtures with commercial herbicides, Post- or Pre-emergence
Assay type in all cases: in vivo
[1] = system: ALOMY, blackgrass (Alopecurus myosuroides); conditions: Post-emergence, scale 0-100
Procedure: (§1) This test evaluated the effect of mixtures of Compound 1 or Compound 2 with various commercial herbicides on multiple plant species. Seeds of multiple plant species selected were planted into Sandy Loam soil and treated either Post-emergence or Pre-emergence with test chemicals formulated in a non-phytotoxic solvent mixture. Plants were grown in a greenhouse using supplemental lighting to maintain a photoperiod of approximately 16 h; daytime and nighttime temperatures were approximately 24-30 and 19-21° C., respectively. Balanced fertilizer was applied through the watering system. Treated plants and controls were maintained in a greenhouse for 20 d, after which time all species were compared to controls and visually evaluated. Plant response ratings summarized in Tables F1 through F4 and are based on a scale of 0 to 100 where 0 is no effect and 100 is complete control. A dash (-) response means no test result. Application rates (i.e. “Rate”) are expressed in grams of active ingredient per hectare (g a.i./ha). In the following tables KCHSC is kochia (Kochia scoparia), LOLMU in Italian Ryegrass (Lolium multiflorum), AMBEL is common ragweed (Ambrosia elatior), ECHCG is barnyardgrass (Echinochloa crus-galli), SETVI is giant foxtail (Setaria faberii), AMARE is redroot pigweed (Amaranthus retroflexus), ALOMY is blackgrass (Alopecurus myosuroides) and GALAP is galium (Galium aparine). “Obsd.” is observed effect. “Exp.” is expected effect calculated from Colby's Equation.
(§2) Colby's Equation was used to determine the herbicidal effects expected from the mixtures. Colby's Equation (Colby, S. R. “Calculating Synergistic and Antagonistic Responses of Herbicide Combinations,” Weeds, 15(1), pp 20-22 (1967)) calculates the expected additive effect of herbicidal mixtures, and for two active ingredients is of the form: Pa+b=Pa+Pb−(PaPb/100)
(§3) wherein Pa+b is the percentage effect of the mixture expected from additive contribution of the individual components:
(§4) Pa is the observed percentage effect of the first active ingredient at the same use rate as in the mixture, and
(§5) Pb is the observed percentage effect of the second active ingredient at the same use rate as in the mixture.

[2] = system: AMARE, redroot pigweed (Amaranthus retroflexus)
Procedure: as §1, §2, §3, §4, §5

[3] = system: AMBEL, common ragweed (Ambrosia elatior)
Procedure: as §1, §2, §3, §4, §5

[4] = system: ECHCG, barnyardgrass (Echinochloa crus-galli)
Procedure: as §1, §2, §3, §4, §5

[5] = system: GALAP, galium (Galium aparine); conditions: Post-emergence, scale 0-100
Procedure: as §1, §2, §3, §4, §5

[6] = system: KCHSC, kochia (Kochia scoparia)
Procedure: as §1, §2, §3, §4, §5

[7] = system: LOLMU, Italian Ryegrass (Lolium multiflorum)
Procedure: as §1, §2, §3, §4, §5

[8] = system: SETVI, giant foxtail (Setaria faberii)
Procedure: as §1, §2, §3, §4, §5

[9] = Pre-emergence, Rate 62 g a.i./ha, scale 0-100
[10] = Table F3, Post-emergence, Rate 62 g a.i./ha, scale 0-100
[11] = Post-emergence, Rate 4 g a.i./ha, scale 0-100
[12] = Post-emergence, Rate 16 g a.i./ha, scale 0-100
[13] = Pre-emergence, Rate 4 g a.i./ha, applied alone, 20 d, scale 0 to 100
[14] = Pre-emergence, Rate 16 g a.i./ha, applied alone, 20 d, scale 0 to 100

`CCNc1nc(Cl)nc(NC(C)C)n1` [atrazine] was tested, and the “ALOMY Obsd.” value ([1]; Table F3, Rate 62 g a.i./ha) was 60, the “AMARE Obsd.” value [2, 9] was 85 and the “AMARE Obsd.” value [2, 10] was 75. For the same compound, the “AMBEL Obsd.” value [3, 9] was 10, the “AMBEL Obsd.” value [3, 10] was 10 and the “ECHCG Obsd.” value [4, 9] was 0. The “ECHCG Obsd.” value [4, 10] was 20, the “GALAP Obsd.” value ([5]; Table F3, Rate 62 g a.i./ha) was 50 and the “KCHSC Obsd.” value [6, 9] was 100. The “KCHSC Obsd.” value [6, 10] was 100, the “LOLMU Obsd.” value [7, 9] was 100 and the “LOLMU Obsd.” value [7, 10] was 15. The “SETVI Obsd.” value [8, 9] was 5 and the “SETVI Obsd.” value [8, 10] was 5.

`CS(=O)(=O)c1ccc(C(=O)C2C(=O)CCCC2=O)c([N+](=O)[O-])c1` [mesotrione] was tested, and the “ALOMY Obsd.” value ([1]; Rate 4 g a.i./ha) was 0.0, the “ALOMY Obsd.” value ([1]; Rate 16 g a.i./ha) was 0.0 and the “AMARE Obsd.” value [2, 11] was 0.0. The “AMARE Obsd.” value [2, 12] was 30.0, the “AMARE Obsd.” value [2, 13] was 0 and the “AMARE Obsd.” value [2, 14] was 20. The “AMBEL Obsd.” value [3, 11] was 0.0, the “AMBEL Obsd.” value [3, 12] was 75.0 and the “AMBEL Obsd.” value [3, 13] was 0. The “AMBEL Obsd.” value [3, 14] was 30, the “ECHCG Obsd.” value [4, 11] was 0.0 and the “ECHCG Obsd.” value [4, 12] was 20.0. The “ECHCG Obsd.” value [4, 13] was 0, the “ECHCG Obsd.” value [4, 14] was 0 and the “GALAP Obsd.” value ([5]; Rate 4 g a.i./ha) was 0.0. The “GALAP Obsd.” value ([5]; Rate 16 g a.i./ha) was 35.0, the “KCHSC Obsd.” value [6, 11] was 0.0 and the “KCHSC Obsd.” value [6, 12] was 90.0. For the same compound, the “KCHSC Obsd.” value [6, 13] was 0, the “KCHSC Obsd.” value [6, 14] was 50 and the “LOLMU Obsd.” value [7, 11] was 0.0. For the same compound, the “LOLMU Obsd.” value [7, 12] was 0.0, the “LOLMU Obsd.” value [7, 13] was 0 and the “LOLMU Obsd.” value [7, 14] was 0. For the same compound, the “SETVI Obsd.” value [8, 11] was 0.0, the “SETVI Obsd.” value [8, 12] was 0.0 and the “SETVI Obsd.” value [8, 13] was 0. For the same compound, the “SETVI Obsd.” value [8, 14] was 0.
